Test results: patent publication US6342514B1, “Compositions and methods for treating bone deficit conditions” (ZymoGenetics, Inc., priority 1996, dated 2002)

What was measured:
[1] = test system: mouse BMP2 promoter; test: High throughput screening: BMP-2 promoter luciferase reporter assay in 2T3-BMP-2-LUC cells; type: cell-based; details: at about 3 μM
Text: A rapid throughput screening test for compounds capable of stimulating expression of a reporter gene linked to a BMP promoter (a surrogate for the production of bone morphogenetic factors that are endogenously produced) is described in U.S. application Ser. No. 08/458,434, filed Jun. 2, 1995, the contents of which are incorporated herein by reference. This assay is also described as a portion of a study of immortalized murine osteoblasts (derived from a mouse expressing a transgene composed of a BMP2 promoter driving expression of T-antigen) in Ghosh-Choudhery, N. et al. Endocrinology (1996) 137:331-39. […]
Briefly, the assay utilizes cells transformed permanently or transiently with constructs in which the promoter of a bone morphogenetic protein, specifically BMP2 or BMP4, is coupled to a reporter gene, typically luciferase. These transformed cells are then evaluated for the production of the reporter gene product; compounds that activate the BMP promoter will drive production of the reporter protein, which can be readily assayed. […]
The treated cells were incubated for 24 hours at 37° C. and 5% CO2. […] Luminescence was measured on an automated 96-well luminometer, and was expressed as either picograms of luciferase activity per well or as picograms of luciferase activity per microgram of protein. […]

[2] = test system: TMC-23 mouse clonal chondrogenic cell line; test: Chondrogenic activity: alkaline phosphatase (ALP) activity in TMC-23 cells; type: cell-based; details: day 2, 10^−9 M, compared to vehicle control
Procedure: Briefly, a mouse clonal chondrogenic cell line, TMC-23, was isolated and cloned from costal cartilage of transgenic mice containing the BMP-2 gene control region driving SV-40 large T-antigen, generated as described in Ghosh-Choudhury et al Endocrinology 137:331-39, 1996.
For measurement of alkaline phosphatase (ALP) activity, the technique of LF Bonewald et al. J Biol Chem (1992) 267:8943-49, was employed. Briefly, TMC-23 cells were plated in 96 well microtiter plates in DMEM containing 10% FCS at 4×10^3 cells/well. Two days after plating, the cells were confluent and the medium was replaced with fresh medium containing 10% FCS and different concentrations of compounds or recombinant BMP-2. After an additional 2 or 5 days incubation, the plates were washed twice with PBS, and then lysing solution (0.05% Triton X-100) was added (100 μl/well). The cells were lysed by three freeze-thaw cycles of −70° C. (30 min), followed by 37° C. (30 min with shaking). […] The spectrophotometric absorbance at 405 nm was compared to that of p-nitrophenol standards to estimate ALP activity in the samples. The protein content of the cell lysates was determined by the Bio-Rad protein assay kit (Bio-Rad, Hercules, Calif.). Specific activity was calculated using these two parameters.

[3] = test system: calvarial bone of ICR Swiss white mice; test: In vivo assay of effects of compounds on murine calvarial bone growth; set-up: species or system mouse; details: subcutaneous injection over right calvaria, day 14, compared to vehicle control
Procedure: Male ICR Swiss white mice, aged 4-6 weeks and weighing 13-26 gm, are employed, using 4-5 mice per group. The calvarial bone growth assay is performed as described in PCT application WO 95/24211. Briefly, the test compound or appropriate control vehicle is injected into the subcutaneous tissue over the right calvaria of normal mice. Typically, the control vehicle is the vehicle in which the compound was solubilized, and is PBS containing 5% DMSO or is PBS containing Tween (2 μl/10 ml). The animals are sacrificed on day 14 and bone growth measured by histomorphometry. Bone samples for quantitation are cleaned from adjacent tissues and fixed in 10% buffered formalin for 24-48 hours, decalcified in 14% EDTA for 1-3 weeks, processed through graded alcohols; and embedded in paraffin wax. Three to five μm sections of the calvaria are prepared, and representative sections are selected for histomorphometric assessment of the effects on bone formation and bone resorption. Sections are measured by using a camera lucida attachment to trace directly the microscopic image onto a digitizing plate. Bone changes are measured on sections cut 200 μm apart, over 4 adjacent 1×1 mm fields on both the injected and noninjected sides of the calvaria. New bone is identified by its characteristic woven structure, and osteoclasts and osteoblasts are identified by their distinctive morphology. […]

Structure (SMILES): c1ccc(N=NC2=NNc3ccccc3S2)cc1 [Compound 59-0008, 3-phenylazo-1H-4,1,2-benzothiadiazine]
- luciferase response at maximal activity [1]: approximately 175 light emission units
- increase of ALP levels [2]: approximately 3 fold
- increase in width of new calvarial bone [3]: 4 fold
